Patent US20250235458A1, “Benzimidazole derivatives for use in the treatment or prevention of a histiocytosis or a craniopharyngioma” (UNIVERSITE CLAUDE BERNARD LYON 1, priority 2021, published 2025)

How the values were obtained:
Format in all cases: cell-based, murine
MutuDC1940 cells [1] = assay: Cell death assay (propidium iodide, number of dead cells by Incucyte)
Method: (§1) 1.5×10^4 cells (MutuDC1940) were plated onto 96 wells plates. Next day, cells were treated at 8 μM of compound 6 or vemurafenib or with the vehicle (DMSO) in presence of 0.3 μg/ml of propidium iodide (Sigma) to detect cell death. Proliferation and cell death were quantified by Incucyte® (Essen Biosciences) according to manufacturer's instructions over 48 h.
(§2) The results obtained for the cell death assay are presented on FIG. 3. FIG. 3 presents the number of dead cells observed during time for a culture of MutuDC1940 cells, a murine model of histiocytosis, treated at 8 μM with compound 6 according to the invention or with vemurafenib (a MAPK/BRAF inhibitor), or with the vehicle (DMSO).
(§3) The same experiments regarding cell proliferation (assessed by confluence in %) and cell death (assessed by number of dead cells on 13 mm^2) as in Example 1 were repeated with additional ERK/MyD88 inhibitors of formula (I): compounds 2, 7 and 17.
(§4) The same experiments regarding cell proliferation (assessed by confluence in %) and cell death (assessed by number of dead cells on 13 mm^2) as in Example 1 were repeated with a lower concentration, which corresponds to the IC50 of vemurafenib (BRAF inhibitor).

MutuDC1940 cells [2] = assay: CXCL2 quantification assay (ELISA); details: 8 μM, 16 h or 24 h treatment, vs DMSO
Method: 0.5×10^6 cells (MutuDC1940) were plated onto 6-well plates. Next day, cells were treated with 8 μM of compound 6 or DMSO for 16 or 24 hours. Each condition was performed in triplicate. Supernatants were collected and murine CXCL2 was measured by ELISA according to the manufacturer's instructions (Invitrogen).

MutuDC1940 cells [3] = assay: Proliferation assay (confluence by Incucyte)
Method: as §1
as §2, with “proliferation” for “cell death”, “2.” for “3.”, “2” for “3”, “confluence, i.e. the percentage” for “number”, “the surface of the culture dish that is covered by the cells,” for “dead cells”
as §3, §4

[4] = 8 μM, over 48 h, vs vehicle (DMSO)

Compound	cell death (number of dead cells on 13 mm^2) (MutuDC1940 cells [1]; [4])	production of CXCL2 (cytokine production) (MutuDC1940 cells [2])	cell proliferation (confluence in %) (MutuDC1940 cells [3]; [4])	cell death (number of dead cells on 13 mm^2) (MutuDC1940 cells [1]; ulixertinib at 1 μM, FIG. 12)	cell proliferation (confluence in %) (MutuDC1940 cells [3]; ulixertinib at 1 μM, FIG. 11)
COc1ccc(NC(=O)c2ccc3[nH]c(-c4ccc(N(C)C)cc4)nc3c2)cn1 [compound 6]	induces the death of the cells	induces cytokine production	inhibits the proliferation of the cells		
CC(C)Nc1cc(-c2c[nH]c(C(=O)N[C@H](CO)c3cccc(Cl)c3)c2)c(Cl)cn1 [ulixertinib, reference compound]				no effect on cell death	only inhibit proliferation
